# Data: PubChem BioAssay (NCI)
#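 Abbreviation: GI50, concentration required for 50% inhibition of growth. The concentration for full growth arrest is given as TGI.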
# Experiments:
# Assay in all cases: NCI-60 cell line screen, 384-well format
# 786-0 renal = tested on: 786-0 renal
# A498 renal = tested on: A498 renal
# A549 NSCLC = tested on: A549 NSCLC
# ACHN renal = tested on: ACHN renal
# BT-549 breast = tested on: BT-549 breast
# CAKI-1 renal = tested on: CAKI-1 renal
# CCRF-CEM leukemia = tested on: CCRF-CEM leukemia
# COLO 205 colon = tested on: COLO 205 colon
# DU-145 prostate = tested on: DU-145 prostate
# EKVX NSCLC = tested on: EKVX NSCLC
# HCC-2998 colon = tested on: HCC-2998 colon
# HCT-15 colon = tested on: HCT-15 colon
# HL-60(TB) leukemia = tested on: HL-60(TB) leukemia
# HOP-62 NSCLC = tested on: HOP-62 NSCLC
# HOP-92 NSCLC = tested on: HOP-92 NSCLC
# HS 578T breast = tested on: HS 578T breast
# HT29 colon = tested on: HT29 colon
# IGROV1 ovarian = tested on: IGROV1 ovarian
# K-562 leukemia = tested on: K-562 leukemia
# KM12 colon = tested on: KM12 colon
# LOX IMVI melanoma = tested on: LOX IMVI melanoma
# M14 melanoma = tested on: M14 melanoma
# MALME-3M melanoma = tested on: MALME-3M melanoma
# MCF7 breast = tested on: MCF7 breast
# MDA-MB-231 breast = tested on: MDA-MB-231 breast
# MDA-MB-435 melanoma = tested on: MDA-MB-435 melanoma
# MDA-MB-468 breast = tested on: MDA-MB-468 breast
# MOLT-4 leukemia = tested on: MOLT-4 leukemia
# NCI-H226 lung = tested on: NCI-H226 lung
smiles,measurement,setting,value
CCOCC1(COCC)CCC(c2[nH]ncc2CN(C)CCNC)CC1,GI50,786-0 renal,10.4 µM
same,TGI,786-0 renal,> 100 µM
same,GI50,A498 renal,5.94 µM
same,TGI,A498 renal,> 100 µM
same,GI50,A549 NSCLC,18.1 µM
same,TGI,A549 NSCLC,> 100 µM
same,GI50,ACHN renal,2030 nM
same,TGI,ACHN renal,> 100 µM
same,GI50,BT-549 breast,32.7 µM
same,TGI,BT-549 breast,> 100 µM
same,GI50,CAKI-1 renal,3.69 µM
same,TGI,CAKI-1 renal,> 100 µM
same,GI50,CCRF-CEM leukemia,53.3 µM
same,TGI,CCRF-CEM leukemia,> 100 µM
same,GI50,COLO 205 colon,20.5 µM
same,TGI,COLO 205 colon,> 100 µM
same,GI50,DU-145 prostate,> 100 µM
same,TGI,DU-145 prostate,> 100 µM
same,GI50,EKVX NSCLC,> 100 µM
same,TGI,EKVX NSCLC,> 100 µM
same,GI50,HCC-2998 colon,16.3 µM
same,TGI,HCC-2998 colon,38.3 µM
same,GI50,HCT-15 colon,18.6 µM
same,TGI,HCT-15 colon,> 100 µM
same,GI50,HL-60(TB) leukemia,123 nM
same,TGI,HL-60(TB) leukemia,2680 nM
same,GI50,HOP-62 NSCLC,71 µM
same,TGI,HOP-62 NSCLC,> 100 µM
same,GI50,HOP-92 NSCLC,35.2 µM
same,TGI,HOP-92 NSCLC,> 100 µM
same,GI50,HS 578T breast,> 100 µM
same,TGI,HS 578T breast,> 100 µM
same,GI50,HT29 colon,10.7 µM
same,TGI,HT29 colon,35.8 µM
same,GI50,IGROV1 ovarian,2770 nM
same,TGI,IGROV1 ovarian,> 100 µM
same,GI50,K-562 leukemia,4.11 µM
same,TGI,K-562 leukemia,> 100 µM
same,GI50,KM12 colon,> 100 µM
same,TGI,KM12 colon,> 100 µM
same,GI50,LOX IMVI melanoma,29.6 µM
same,TGI,LOX IMVI melanoma,> 100 µM
same,GI50,M14 melanoma,17.6 µM
same,TGI,M14 melanoma,44.7 µM
same,GI50,MALME-3M melanoma,8.61 µM
same,TGI,MALME-3M melanoma,36.3 µM
same,GI50,MCF7 breast,29.9 µM
same,TGI,MCF7 breast,> 100 µM
same,GI50,MDA-MB-231 breast,42.5 µM
same,TGI,MDA-MB-231 breast,> 100 µM
same,GI50,MDA-MB-435 melanoma,58.7 µM
same,TGI,MDA-MB-435 melanoma,> 100 µM
same,GI50,MDA-MB-468 breast,1810 nM
same,TGI,MDA-MB-468 breast,35.6 µM
same,GI50,MOLT-4 leukemia,20 µM
same,TGI,MOLT-4 leukemia,> 100 µM
same,GI50,NCI-H226 lung,> 100 µM
